US20250339462A1, “CANCER TREATMENT USING ULTRA-HIGH CONCENTRATION GASEOUS NITRIC OXIDE AND A CHECKPOINT INHIBITOR” (Beyond Air, Inc., priority 2022, published 2025)

Key:
[1] = test system: PD-L1 expression on CT26 PI negative cells; experiment: In vitro UNO exposure of CT26 cells, PD-L1 expression by flow cytometry; assay type: cell-based, mouse
Experimental: Preparation of cells—Mouse colon carcinoma CT26.WT cells (ATCC number: CRL-2638) were grown to a 70-80% confluency and harvested using trypsin. Following, the cells were centrifuged at 1,200 revolutions per minute (rpm)—241 G for 8 minutes, then the pellet was re-suspended in 1 ml of cell media (RPMI—1640 supplemented with 10% FBS and 1% Pen-Strep). The cells were counted using an automated cell counter and a total of 2×10^6 cells were seeded into each […] containing 9 ml cell media. The plates were then placed for 24 hours in an incubator at 37° C., 5% CO2.
UNO treatment—Following 24 hours of incubation, cell media was removed, and the plate was placed in an acrylic box stationed within an operating chemical fume hood. Prior to the initiation of treatment, the box was exposed to UV for 1 hour to reduce the chances of contamination. The box was closed and sealed with parafilm. A PVC delivery line was placed within a designated hole on the top of the box and lowered until approximately 5 cm within the box. The flowmeter was set to 1 LPM to expose the cells for the durations and concentrations described in Table 3 (control cells were untreated).
Following treatment, 9 ml of cell media were added to each well and the plate was placed for 24 hours in an incubator at 37° C., 5% CO2.
Flow cytometry—Cell media was removed to a 50 ml centrifuge tube. […]

CT26 tumor-bearing mice = experiment: CT26 tumor model, UNO + anti-mPD-1 + CpG-B; assay type: in vivo, mouse
Experimental: Preparation of cancer cells for injection—Mouse colon carcinoma CT26.WT cells (ATCC, Cat no. CRL-2638) suspended in Hanks' Balanced Salt Solution (HBSS) (Biological Industries, Israel), at a concentration of 5.0×10^6 cells/ml, were freshly prepared on the day of cancer model induction. Cells were grown to 70% confluency and were harvested using trypsin (Biological Industries, Israel), and counted using a cell counter device. The cells were then centrifuged at 1,200 rpm (241×g) for 8 minutes, and the pellet was re-suspended in ice cold HBSS at 5.0×10^6 in 1 ml (5.0×10^5 cells in 100 μl solution). Cell viability was >90% as determined by trypan blue staining prior to inoculation to mice. At the point of inoculation, cells were at passage 8 at most.
Inoculation of CT26 cancer cells to mice—100 μl/mouse of the_CT26 cancer cells suspension (concentration of 5.0×10^6 cells/ml) were inoculated subcutaneously (s.c.) to the right flank of male BALB/c mice, which were 10 weeks of age (Envigo, the Netherlands). Five days later, CT26 cells at the same dose were inoculated s.c. to the left flank of each mouse. Ten days post primary tumor inoculation tumor-bearing mice were divided into the following groups (day 0) as depicted in Table 2 below and treated according to the timeline shown in FIG. 20:
Mice were followed up for totally 52 days. Tumor take was monitored by palpation of the flank and tumor growth was monitored by measurement of the tumor dimensions using a digital caliper. Mice were sacrificed and excluded from the study if their total tumor volume was >1500 mm^3 or their distress scoring >12 as was accepted according to the IACUC IL-2112-105-5.
UNO treatment—On the day of treatment, mice were anesthetized by an intraperitoneal (i.p.) injection of 100 mg/kg ketamine and 10 mg/kg of xylazine hydrochloride solution. Tumor-bearing mice were treated with 50,000 ppm of UNO delivered into the tumor by a 23 G needle over 5 minutes, at 0.2 LPM. After treatment, all mice were warmed and closely monitored until complete recovery was observed. […]

In the case of [N]=O [UNO, nitric oxide], the “PI negative cells expressing PD-L1” value ([1]; 25,000-100,000 ppm for 10 s, 30 s or 1 min, depending on dosage and time of exposure) is reported as 70-90%, the “Mean fluorescent intensity (MFI) of PD-L1 expression” value ([1]; UNO dosage and time dependent manner) is reported as “increased” and the “Percentage of mice with primary tumor complete regression” value (CT26 tumor-bearing mice; 42 days after treatments (FIG. 16)) is reported as 10%. The “Distant tumor rejection, percentage of mice” value (CT26 tumor-bearing mice; 42 days following treatments (FIG. 17)) was 11% and the “Percentage of group surviving” value (CT26 tumor-bearing mice; 52 days following primary tumor inoculation) was 10%.
